# “Also recorded” adds a separate entry of the source.
# What was measured:
# S. aureus TarJ = biological target: T1, S. aureus TarJ (Staphylococcus aureus, UniProt Q2G1B9); assay: In vitro enzyme inhibition assay, TarJ; format: biochemical; details: targocil 50 μg/mL
# T1 sequence (Q2G1B9 1-341): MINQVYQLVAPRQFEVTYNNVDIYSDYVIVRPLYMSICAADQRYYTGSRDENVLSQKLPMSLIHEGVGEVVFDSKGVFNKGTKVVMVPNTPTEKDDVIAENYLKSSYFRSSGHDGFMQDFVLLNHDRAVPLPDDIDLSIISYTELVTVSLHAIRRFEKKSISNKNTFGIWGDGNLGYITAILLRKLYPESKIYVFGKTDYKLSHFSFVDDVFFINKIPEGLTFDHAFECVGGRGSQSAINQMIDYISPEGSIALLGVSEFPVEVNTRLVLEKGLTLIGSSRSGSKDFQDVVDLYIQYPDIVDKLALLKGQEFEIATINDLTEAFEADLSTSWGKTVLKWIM
# [1] = tested on: S. aureus strain expressing B. subtilis 168 TagGH; assay: Growth of S. aureus RN4220 expressing B. subtilis 168 tagGH; format: cell-based, Staphylococcus aureus; details: 28° C., 12 h, OD600
# Description: (§1) (A) Targocil MIC data for a panel of Gram-positive strains, including MRSA clinical isolates B5271 and 5340A. Growth was monitored in triplicate after 12 h at 28° C. using optical density. (B) Two dimensional drug interaction analysis between tunicamycin and targocil grown for 18 h at 30° C. […] At higher concentrations, tunicamycin is toxic because it inhibits cell wall biosynthesis. […] Varying concentrations of drug were added to […] of S. aureus RN4220 after 5 h and cell count was monitored over time at 30° C. […] Cells were grown at 28° C. for 12 h and monitored for growth using optical density (OD600). Data were normalized to the DMSO controls for each strain. (E) Two classes of mutants were examined: phage resistant (m1 3) and phage sensitive (m4-5).
# S. aureus RN4220 = assay: Kill curve analysis; format: cell-based, Staphylococcus aureus; details: 10^6 cfu/mL S. aureus RN4220, 30° C.
# Description: as §1
# [2] = tested on: strain overexpressing S. aureus TarGH; assay: Growth of S. aureus RN4220 overexpressing S. aureus tarGH; format: cell-based, Staphylococcus aureus; details: 28° C., 12 h, OD600
# Description: as §1
# [3] = tested on: S. aureus RN4220 TarG:W73C (m5); assay: MIC analysis of RN4220 carrying the mutant tarG allele TarG:W73C; format: cell-based, Staphylococcus aureus; details: mutant allele exchanged into RN4220
# Description: Therefore, we conclude that TarG is a target of targocil. […] (Davidson A L, Dassa E, Orelle C, & Chen J (2008) Microbiology and Molecular Biology Reviews 72:317-364) In addition to functioning as antibiotics, inhibitors such as targocil, and derivatives thereof, could be valuable tools for mechanistic and structural analyses of ABC transporters.
# S. aureus TarI = biological target: T2, S. aureus TarI (Staphylococcus aureus, UniProt Q2G1C0); assay: In vitro enzyme inhibition assay, TarI (HPLC); format: biochemical; details: targocil 50 μg/mL; enzyme 200 nM
# T2 construct: made in house
# T2 sequence (Q2G1C0 1-238): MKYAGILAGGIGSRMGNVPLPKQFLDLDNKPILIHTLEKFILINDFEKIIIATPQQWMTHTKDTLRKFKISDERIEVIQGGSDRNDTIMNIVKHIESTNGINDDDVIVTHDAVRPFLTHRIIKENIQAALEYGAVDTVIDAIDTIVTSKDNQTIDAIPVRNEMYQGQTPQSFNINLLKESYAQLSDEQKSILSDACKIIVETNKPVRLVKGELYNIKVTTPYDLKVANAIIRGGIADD
# Description: S. aureus TarB, D, F, I, and L were cloned, overexpressed and purified as described previously (S. Brown, Y. H. Zhang, S. Walker, Chemistry & Biology 15, 12, Jan. 2008.) Radiometric in vitro assays were run to test the inhibitory effects of targocil on Tar B, D, F, and L, while TarI was assayed for targocil inhibition using an HPLC assay using conditions similar to those previously reported (ibid). See below for exact reaction conditions. […] In each case, a reaction with no targocil served as a negative control (active enzymatic reaction) and a reaction with heat-treated enzyme served as a positive control (no enzymatic reaction). Targocil was incubated with all reaction components except the substrates at room temperature. After 10 minutes, substrates were added and the reactions were allowed to proceed for 60 minutes. The reactions were quenched with DMF and the products were imaged/monitored as previously described (ibid).
# TarI in vitro inhibition assay protocol and data. […] The reactions were monitored by HPLC using an anion exchange column, Phenosphere 5μ SAX 250×4.6 mm, 5 μm (Phenomenex), to record the disappearance of the CTP peak and production of a new CDP ribitol peak (Buffer A: 5 mM NH4H2PO4, pH 2.8, Buffer B: 750 mM NH4H2PO4, pH 3.7, isocratic elution 75% B over 20 minutes, UV monitored at 271 nm).
structure (smiles),measurement,setting,value
"CCN(CC)c1nc2c(S(=O)(=O)c3ccccc3)nnn2c2ccc(Cl)cc12 [7-chloro-N,N-diethyl-3-(phenylsulfonyl)-[1,2,3]triazolo[1,5-a]quinazolin-5-amine]",inhibition of TarJ,S. aureus TarJ,None of these enzymes was inhibited
same,resistance to targocil of strain expressing B. subtilis 168 TagGH,[1],fully resistant; also recorded: complete resistance
same,mode of action in kill curve (bacteriostatic or bactericidal),S. aureus RN4220,bacteriostatic
same,resistance to targocil of strain overexpressing S. aureus TarGH,[2],partially resistant; also recorded: partial resistance
same,resistance to targocil of TarG:W73C strain,[3],fully resistant; also recorded: confer resistance
same,inhibition of TarI,S. aureus TarI,None of these enzymes was inhibited

# — patent publication US8598342B2, “Methods and compounds for antimicrobial intervention” (President and Fellows of Harvard College, priority 2008, dated 2013)
